What was measured:
RAW264.7 [1] = test: Inhibition of LPS-induced NO production in mouse RAW264.7 cells after 24 hrs by Griess reaction; assay type: functional, cell-based; conditions: RAW264.7, 24 h
RAW264.7 [2] = test: Cytotoxicity against mouse RAW264.7 cells after 24 hrs; assay type: cell-based; conditions: raw264.7, 24 h

| SMILES | IC50 (RAW264.7 [1]) [µM] | Activity (RAW264.7 [2]) |
| --- | --- | --- |
| C[C@@]12C[C@@]3(O)O[C@@H](O1)[C@]1(CO)[C@H]3C[C@@]12O[C@@H]1O[C@H](CO)[C@@H](O)[C@H](O)[C@H]1O | 74.2 | Non-toxic |
| C[C@@]12C[C@@]3(O)O[C@@H](O1)[C@]1(COC(=O)c4ccccc4)[C@@H]3C[C@]12O[C@@H]1O[C@H](COC(=O)c2cc(O)c(O)c(O)c2)[C@@H](O)[C@H](O)[C@H]1O [GALLOYLPAEONIFLORIN] | 36.1 | Non-toxic |
| COc1cc(C(=O)OC[C@H]2O[C@@H](O[C@]34C[C@@H]5[C@@]3(COC(=O)c3ccccc3)[C@H]3O[C@]5(O)C[C@]4(C)O3)[C@H](O)[C@@H](O)[C@@H]2O)ccc1O [MUDANPIOSIDE J] | > 100 | Non-toxic |
| C[C@@]12C[C@@]3(O)O[C@@H](O1)[C@]1(COC(=O)c4ccccc4)[C@H]3C[C@@]12O[C@@H]1O[C@H](COC(=O)c2ccccc2)[C@@H](O[C@@H]2O[C@H](CO)[C@@H](O)[C@H](O)[C@H]2O)[C@H](O)[C@H]1O [PAEONIFLORIN B] | 31.2 | Non-toxic |
| C[C@@]12C[C@@]3(O)O[C@@H](O1)[C@]1(COC(=O)c4ccccc4)[C@@H]3C[C@]12O[C@@H]1O[C@H](COC(=O)c2ccccc2)[C@@H](O)[C@H](O)[C@H]1O [BENZOYLPAEONIFLORIN] | > 100 | Non-toxic |
| CO[C@@H]1O[C@@]2(C)CC(=O)[C@@H]3C[C@@]2(O[C@@H]2O[C@H](CO)[C@@H](O)[C@H](O)[C@H]2O)[C@]13COC(=O)c1ccc(O)cc1 | – | Non-toxic |
| C[C@@]12CC(=O)[C@H]3C[C@]1(O)O[C@H](O2)[C@@H]3COC(=O)c1ccccc1 [PAEONIFLORIGENONE] | 6.87 | Non-toxic |
| CCCCO[C@H]1O[C@@]2(C)CC(=O)[C@@H]3C[C@@]2(O[C@@H]2O[C@H](CO)[C@@H](O)[C@H](O)[C@H]2O)[C@]13COC(=O)c1ccccc1 | > 100 | Non-toxic |
| COc1cc(C(=O)OC[C@H]2O[C@@H](O[C@@]34C[C@H]5[C@@]3(CO)[C@H]3O[C@]5(O)C[C@]4(C)O3)[C@H](O)[C@@H](O)[C@@H]2O)ccc1O [MUDANPIOSIDE E] | > 100 | Non-toxic |
| C[C@@]12C[C@@]3(O)O[C@@H](O1)[C@]1(COC(=O)c4ccc(O)cc4)[C@H]3C[C@@]12O[C@@H]1O[C@H](CO)[C@@H](O)[C@H](O)[C@H]1O [OXYPAEONIFLORIN] | – | Non-toxic |
| CC1=CC(=O)[C@@H]2C[C@@]1(O[C@@H]1O[C@H](CO)[C@@H](O)[C@H](O)[C@H]1O)[C@@]2(C)CO [MOUDANPIOSIDE F] | 12.4 | Non-toxic |
| CO[C@H]1O[C@@]2(C)CC(=O)[C@H]3C[C@]2(O[C@@H]2O[C@H](COC(=O)c4ccccc4)[C@@H](O)[C@H](O)[C@H]2O)[C@]13COC(=O)c1ccccc1 [PAEONIDANIN A] | > 100 | Non-toxic |

Now from value to compound, other results behind:

| IC50 (RAW264.7 [1]) [µM] | SMILES | Activity (RAW264.7 [2]) |
| --- | --- | --- |
| > 100 | CO[C@]12C[C@]3(C)O[C@H](O1)[C@]1(COC(=O)c4ccc(O)cc4)[C@H]2C[C@@]13O[C@@H]1O[C@H](CO)[C@@H](O)[C@H](O)[C@H]1O | Non-toxic |
| > 100 | CO[C@]12C[C@]3(C)O[C@H](O1)[C@]1(COC(=O)c4ccc(O)cc4)[C@H]2C[C@@]13O[C@@H]1O[C@H](COC(=O)c2cc(O)c(O)c(O)c2)[C@@H](O)[C@H](O)[C@H]1O | Non-toxic |
| > 100 | COc1ccc(C(=O)OC[C@H]2O[C@@H](O[C@]34C[C@@H]5[C@@]3(COC(=O)c3ccc(O)cc3)[C@H]3O[C@]5(O)C[C@]4(C)O3)[C@H](O)[C@@H](O)[C@@H]2O)cc1 [MOUDANPIOSIDE B] | Non-toxic |
| > 100 | CCCCO[C@]12C[C@]3(C)O[C@H](O1)[C@]1(COC(=O)c4ccc(O)cc4)[C@H]2C[C@@]13O[C@@H]1O[C@H](CO)[C@@H](O)[C@H](O)[C@H]1O | Non-toxic |
| > 100 | CO[C@]12C[C@]3(C)O[C@H](O1)[C@]1(COC(=O)c4ccccc4)[C@@H]2C[C@]13O[C@@H]1O[C@H](CO)[C@@H](O)[C@H](O)[C@H]1O | Non-toxic |
| > 100 | COc1ccc(C(=O)OC[C@]23[C@H]4O[C@]5(O)C[C@](C)(O4)[C@@]2(O[C@@H]2O[C@H](CO)[C@@H](O)[C@H](O)[C@H]2O)C[C@H]35)cc1 [MUDANPIOSIDE D] | Non-toxic |
| 41.9 | CO[C@]12C[C@]3(C)O[C@H](O1)[C@]1(COC(=O)c4ccccc4)[C@@H]2C[C@]13O[C@@H]1O[C@H](COC(=O)c2ccccc2)[C@@H](O)[C@H](O)[C@H]1O | Non-toxic |
| > 100 | CCCCO[C@H]1O[C@@]2(C)CC(=O)[C@@H]3C[C@@]2(O[C@@H]2O[C@H](CO)[C@@H](O)[C@H](O)[C@H]2O)[C@]13COC(=O)c1ccc(O)cc1 | Non-toxic |
| > 100 | C[C@@]12C[C@@]3(OS(=O)O)O[C@@H](O1)[C@]1(COC(=O)c4ccc(O)cc4)[C@H]3C[C@@]12O[C@@H]1O[C@H](CO)[C@@H](O)[C@H](O)[C@H]1O [OXYPAEONIFLORIN SULFONATE] | Non-toxic |
| > 100 | CCCCO[C@]12C[C@]3(C)OC(O1)[C@]1(COC(=O)c4ccccc4)[C@@H]2C[C@@]31O[C@@H]1O[C@H](CO)[C@@H](O)[C@H](O)[C@H]1O | Non-toxic |
| 90.9 | CO[C@H]1O[C@@]2(C)CC(=O)[C@@H]3C[C@@]2(O[C@@H]2O[C@H](CO)[C@@H](O)[C@H](O)[C@H]2O)[C@]13COC(=O)c1ccc(O)cc1 [OXYPAEONIDANIN] | Non-toxic |
| > 100 | C[C@@]12C[C@@]3(O)O[C@@H](O1)[C@]1(COC(=O)c4ccc(O)cc4)[C@H]3C[C@@]12O[C@@H]1O[C@H](COC(=O)c2cc(O)c(O)c(O)c2)[C@@H](O)[C@H](O)[C@H]1O [GALLOYLOXYPAEONIFLORIN] | Non-toxic |
| > 100 | C[C@@]12C[C@@]3(O)O[C@@H](O1)[C@]1(COC(=O)c4ccc(O)cc4)[C@H]3C[C@@]12O[C@@H]1O[C@H](COC(=O)c2ccc(O)cc2)[C@@H](O)[C@H](O)[C@H]1O [MUDANPIOSIDE H] | Non-toxic |
| > 100 | C[C@@]12C[C@@]3(O)O[C@@H](O1)[C@]1(COC(=O)c4ccc(O)cc4)[C@@H]3C[C@]12O[C@@H]1O[C@H](CO)[C@@H](O)[C@H](O)[C@H]1O [OXYPAEONIFLORIN] | – |
| > 100 | C[C@@]12C[C@@]3(O)O[C@@H](O1)[C@]1(COC(=O)c4ccccc4)[C@H]3C[C@@]12O[C@@H]1O[C@H](CO)[C@@H](O)[C@H](O)[C@H]1O [PAEONIFLORIN] | Non-toxic |
